In one data set the test system is Acinetobacter baumannii. The data set can be described thus: Growth inhibition of Acinetobacter baumannii at 32 ug/ml. In kind it is functional. To be noted: read-out: GI.
Data set [1] is described as follows: Inhibition of Mycobacterium tuberculosis GuaB2.
Data set [2] deals with Mycobacterium tuberculosis. The data set can be described thus: Antimicrobial activity against Mycobacterium tuberculosis H37Rv by alamar blue assay. In kind it is functional. Background: Alamar Blue is a resazurin reagent that responds to reducing activity.
Data set [3] concerns Mycobacterium tuberculosis. The data set can be described thus: Inhibition of Mycobacterium tuberculosis GuaB2 at 50 uM.
The test system of data set [4] is Mycobacterium tuberculosis. The data set can be described thus: Antimicrobial activity against Mycobacterium tuberculosis SRMV2.6 H37Rv by alamar blue assay. It counts as functional.
The subject of a further data set is Cryptococcus neoformans. The data set can be described thus: Growth inhibition of Cryptococcus neoformans var. grubii at 32 ug/ml. It counts as functional. The conditions noted are these: read-out: GI.
Another data set relates to Pseudomonas aeruginosa. The data set can be described thus: Growth inhibition of Pseudomonas aeruginosa at 32 ug/ml. It counts as functional. To be noted: read-out: GI.
A further data set concerns Staphylococcus aureus. The data set can be described thus: Growth inhibition of methicillin-resistant Staphylococcus aureus at 32 ug/ml. In kind it is functional. To be noted: read-out: GI.
The target of data set [5] is Inosine-5'-monophosphate dehydrogenase 2 (Homo sapiens) (UniProt P12268). The data set can be described thus: Inhibition of human IMPDH2 at 10 uM.
Chain of Inosine-5'-monophosphate dehydrogenase 2 (Homo sapiens) (P12268 2-514 limits assumed): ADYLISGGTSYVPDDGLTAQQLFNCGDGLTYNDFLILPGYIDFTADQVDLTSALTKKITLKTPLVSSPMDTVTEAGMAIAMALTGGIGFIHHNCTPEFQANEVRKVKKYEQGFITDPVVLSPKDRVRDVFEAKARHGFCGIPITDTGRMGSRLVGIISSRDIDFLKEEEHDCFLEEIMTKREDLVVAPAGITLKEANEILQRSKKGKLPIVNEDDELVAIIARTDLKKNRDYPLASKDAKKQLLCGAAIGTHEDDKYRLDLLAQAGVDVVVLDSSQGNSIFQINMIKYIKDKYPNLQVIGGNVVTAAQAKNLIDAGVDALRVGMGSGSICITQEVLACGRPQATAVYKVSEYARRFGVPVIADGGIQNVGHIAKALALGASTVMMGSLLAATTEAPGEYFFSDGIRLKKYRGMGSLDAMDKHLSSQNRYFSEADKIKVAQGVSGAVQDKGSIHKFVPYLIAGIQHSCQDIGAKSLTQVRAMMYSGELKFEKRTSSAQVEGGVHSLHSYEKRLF
Data set [6] is described as follows: Octanol/water partition coefficient , logP of the compound. It counts as physicochemical.
The test system of another data set is Klebsiella pneumoniae. The data set can be described thus: Growth inhibition of Klebsiella pneumoniae at 32 ug/ml. In kind it is functional. To be noted: read-out: GI.
For another data set, the system named is Candida albicans. The data set can be described thus: Growth inhibition of Candida albicans at 32 ug/ml. It counts as functional. The conditions noted are these: read-out: GI.
Data set [7] relates to Mycobacterium tuberculosis. The data set can be described thus: Antimicrobial activity against Mycobacterium tuberculosis H37Rv in presence of 0.08 to 5 ng/ml anhydrotetracycline-induced guaB2 gene silencing by alamar blue assay. It counts as functional, organism-based.
In another data set the test system is Escherichia coli. The data set can be described thus: Growth inhibition of Escherichia coli at 32 ug/ml. The conditions noted are these: read-out: GI. In kind it is functional.
In data set [8] the test system is Mycobacterium tuberculosis. The data set can be described thus: Antimicrobial activity against Mycobacterium tuberculosis H37Rv in presence of 0.31 ng/ml anhydrotetracycline-induced guaB2 gene silencing by alamar blue assay. It counts as functional.
The subject of data set [9] is Mycobacterium tuberculosis. The data set can be described thus: Antimicrobial activity against Mycobacterium tuberculosis H37Rv in presence of 0.15 ng/ml anhydrotetracycline-induced guaB2 gene silencing by alamar blue assay. In kind it is functional.
Data set [10] can be described thus: Inhibition of Mycobacterium tuberculosis GuaB2 expressed in Escherichia coli BL21(DE3) using [2-2H]-IMP or [2-1H]-IMP and NAD+ incubated for 2 hrs by 1H NMR method.

Structures are written as SMILES. In brackets after ≈: the same amount, converted by molar mass. Activity calls are given as the source filed them. The calls are words filed in the database; no cut-off is given here.

`CC(C(=O)Nc1ccc2c(c1)COC2=O)c1ccc(C(=O)c2ccccc2)cc1` (stereo not given): the inhibition of growth at 32 µg/mL in the data set with Acinetobacter baumannii was 1.89%; in the data set on Cryptococcus neoformans, -94.7%; in the data set on Pseudomonas aeruginosa, 3.08%; in the data set with Staphylococcus aureus, 25.2%; in the data set on Klebsiella pneumoniae, 15.6%; in the data set with Candida albicans, 5.25%. The inhibition of growth at 32 µg/mL in the data set with Escherichia coli is -2.97%. The same compound returned an IC50 in data set [1] of 6.2 µM. For the same compound, the MIC90 in data set [2] and in [4] was 100 µM (≈ 38.5 µg/mL) throughout. The inhibition turned out to be 95.2% in data set [3] and 23% in data set [5]. In [6], this compound gave a logP of 3.67. The result in [7] was Active.

Turning to `COc1c(C)c2c(c(O)c1C/C=C(\C)CCC(=O)O)C(=O)OC2` [MYCOPHENOLIC ACID], the inhibition of growth at 32 µg/mL in the data set on Acinetobacter baumannii worked out at 19.4%; in the data set with Cryptococcus neoformans, 91.4%; with Pseudomonas aeruginosa, 18.8%; in the data set with Staphylococcus aureus, 52.4%; in the data set with Klebsiella pneumoniae it was 3.78%; with Candida albicans, 96.9%. Besides, in the data set with Escherichia coli, the inhibition of growth at 32 µg/mL came to 2.37%. The compound further came in with a concentration for half-maximal inhibition (IC50) in data set [1] of 27.2 µM. The MIC90 in data set [2] and in data set [4] was 50 µM (≈ 16 µg/mL) throughout. Also, the inhibition in [3] was 83%; in [5], 99.9%. Further, in data set [6], the logP stood at 2.68. Further, the result in data set [7] was Active.

Take `O=C(Cc1ccc(F)c2ccccc12)Nc1ccc2c(c1)COC2=O`: the inhibition of growth at 32 µg/mL in the data set on Acinetobacter baumannii is -2.02%; in the data set on Cryptococcus neoformans, -49.8%; in the data set with Pseudomonas aeruginosa, -3.45%; in the data set on Staphylococcus aureus it was 2.37%; in the data set with Klebsiella pneumoniae, 13.4%; in the data set with Candida albicans, 5.47%. The inhibition of growth at 32 µg/mL in the data set on Escherichia coli is -4.49%. The compound further gave an IC50 in data set [1] of 3.04 µM. Moreover, the MIC90 in [2] and in data set [4] was 100 µM (≈ 33.5 µg/mL) in each case. Also, the figures for the inhibition in data set [3] and in data set [5] were 99.9% and 0.1%, respectively. The MIC in [8] and in data set [9] was 12.5 µM each time. The same compound had a lipophilicity (logP) in data set [6] of 2.5 to 3.5. Besides, in [7], the outcome was Active.

Regarding `O=C(Cn1c(-c2cscn2)nc2ccccc21)c1ccc(Br)cc1`, the Ki in data set [10] came to 0.55 µM. This counts as sub-micromolar.

As a reminder, the IC50 is the concentration needed to halve the response being measured. A low value points to inhibition by little substance. As usually defined, the MIC90 is the lowest concentration that inhibits either 90% of growth or 90% of the strains tested, depending on the study. A lower MIC90 goes with higher susceptibility. One may read the inhibition as the share of the control response that was lost under treatment. The logP is a log measure of how a compound divides between an organic and an aqueous phase. A high value points to higher lipophilicity. The term MIC denotes the least concentration at which growth counts as inhibited. The Ki is a dissociation constant, usually derived from enzyme kinetics or from competition with a known ligand. Read a high Ki as weaker binding.

(Values after ChEMBL document CHEMBL4190383, “Hit discovery of Mycobacterium tuberculosis inosine 5'-monophosphate dehydrogenase, GuaB2, inhibitors” (Bioorg Med Chem Lett, 2018).)
